Patent publication US5519116A, “Peptides representing permutations of the mastoparan sequence” (Enichem S.p.A., priority 1991, dated 1996)
Peptide text beside a SMILES is read from it.

What was measured:
[1] = biological target: T1, rGOα (recombined Goα protein) (Rattus norvegicus, UniProt P59215); experiment: GTPase activity assay: GTP hydrolyzed by rGOα reconstituted into phospholipid blisters; assay type: biochemical; conditions: for inhibition at 1000 µM: 1 mM concentration of peptide, read-out: inhibition of hydrolysis of GTP by rGOα; for IC50: inhibition of basal GTPase activity of rGOα, read-out: IC 50 (concentration necessary to achieve 50% inhibition); for EC50: stimulation of rGOα GTPase activity, read-out: concentration giving 50 % of maximum stimulation
T1 construct: made in house; host or cells: E. coli (plasmid pT7-7)
T1 sequence (P59215 13-354): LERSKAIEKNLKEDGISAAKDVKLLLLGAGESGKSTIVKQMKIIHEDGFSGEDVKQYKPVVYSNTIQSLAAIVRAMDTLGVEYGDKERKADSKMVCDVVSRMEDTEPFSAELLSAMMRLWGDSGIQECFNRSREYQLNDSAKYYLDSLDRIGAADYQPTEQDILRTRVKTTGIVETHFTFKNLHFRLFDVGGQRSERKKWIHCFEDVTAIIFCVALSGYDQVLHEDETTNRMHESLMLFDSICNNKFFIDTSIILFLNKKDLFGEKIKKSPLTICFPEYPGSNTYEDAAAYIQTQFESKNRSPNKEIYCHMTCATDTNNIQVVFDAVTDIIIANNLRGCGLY
Protocol: The activity of the peptides was determined by evaluating the quantity of GTP hydrolyzed in the presence of a recombined Goα protein, using the procedures published by Brandt et al., (1983), Biochemistry, 22, 4357-4362 and by Higashijima et al., (1987), J. Biol. Chem., 262, 757-761.
The rGOα was produced by the authors of the present invention by expression in E.coli of the cDNA of the α subunit of the Go protein present in the rat's brain, inserted in register in the bacterial plasmid pt7-7 (Tabor et al., 1985, Proc. Natl. Acad. Sci. USA, 82, 1074-1078).
Compared with natural GOα, rGOα has an N-terminal deletion of 11 amino acids, replaced by another 5 different amino acids because of the cloning strategy adopted. The molecular weight of rGOα is 38.6 Kd.
When the rGOα is reconstituted into phospholipid blisters (by incubation with a phospholipid mixture at 4° C. for 16 hours), its basal GTPase activity reduces to 0.02 min^-1, This experimental condition which approaches that of the natural protein, in the inactivity state, inserted into the cell membrane was chosen to evaluate the effect of the peptides on the hydrolysis of GTP by rGOα.
5 volumes of a solution of rGOα in 50 mM Hepes, pH 8, 1 mM EDTA, 1 mM DTT and 0.02% of Lubrol (HEDL) were mixed with 1 volume of the same buffer containing 0.84% of sodium cholate, 0.05% of dimyristoyl-L-α-phosphatidylcholine, 0.05% of phosphatidylethanolamine from bovine brain and 0.067% of phosphatidyl-serine from bovine brain (as described by Mousli et al., 1990, Immunol. Lett., 25, 355-358) and preincubated at 4° C. overnight.
An aliquot of 32 μl of this solution was incubated at 20° C. for 5 min in a final volume of 50 μl of HEDL containing 1.1 mM MgCl2 and 0.4 μM (γ^-32 p) GTP (10000-30000 cpm/pmol) and the respective peptide at the final concentrations indicated.
The reactions were terminated by adding 750 μl of a 5% suspension of vegetable charcoal in 20 mM phosphoric acid. After agitation and centrifuging, 400 μl of supernatant containing the radioactive phosphate were counted by liquid scintillation.

rGOα = experiment: GTPγS binding to rGOα to saturation; set-up: species or system rat; conditions: at 20°

SMILES | inhibition at 1000 µM [1] [%] | IC50 [1] [µM] | also measured
CC[C@H](C)[C@H](NC(=O)[C@H](C)NC(=O)[C@H](CCCCN)NC(=O)[C@H](CC(C)C)NC(=O)[C@H](CCCCN)NC(=O)[C@H](C)NC(=O)[C@H](CC(N)=O)NC(=O)[C@@H](N)CC(C)C)C(=O)N[C@@H](C)C(=O)N[C@@H](CC(C)C)C(=O)N[C@@H](C)C(=O)N[C@@H](CC(C)C)C(=O)N[C@H](C(=O)N[C@@H](CCCCN)C(=O)O)[C@@H](C)CC [peptide 7] (H-LNAKLKAIALALIK-OH) | 63 | 600 | –
Nc1nc2c(ncn2[C@@H]2O[C@H](COP(=O)(O)OP(=O)(O)OP(O)(O)=S)[C@@H](O)[C@H]2O)c(=O)[nH]1 [GTPγ S] | – | – | Kd (rGOα): 0.0029 µM
CC[C@H](C)[C@H](N)C(=O)N[C@@H](CC(N)=O)C(=O)N[C@@H](CC(C)C)C(=O)N[C@@H](CCCCN)C(=O)N[C@@H](C)C(=O)N[C@@H](CC(C)C)C(=O)N[C@@H](C)C(=O)N[C@@H](C)C(=O)N[C@@H](CC(C)C)C(=O)N[C@@H](C)C(=O)N[C@@H](CCCCN)C(=O)N[C@@H](CCCCN)C(=O)N[C@H](C(=O)N[C@@H](CC(C)C)C(N)=O)[C@@H](C)CC [Mastoparan, mastoparan] | – | – | increase of GTP hydrolysis ([1]; 1 mM of peptide (no additional effect beyond this concentration), 20° C., 5 min): 5 times; effect on the GTPase activity of rGOα (capacity to activate the protein rGoα) ([1]; summary in words): stimulate the GTPase activity of rGOα in a manner dependent on the concentration
CC[C@H](C)[C@H](NC(=O)[C@H](CC(C)C)NC(=O)[C@H](C)NC(=O)[C@H](CCCCN)NC(=O)[C@H](C)NC(=O)[C@H](CC(C)C)NC(=O)[C@H](C)NC(=O)[C@H](CC(C)C)NC(=O)[C@@H](NC(=O)[C@@H](N)CC(N)=O)[C@@H](C)CC)C(=O)N[C@@H](CCCCN)C(=O)N[C@@H](C)C(=O)N[C@@H](CC(C)C)C(=O)N[C@@H](CCCCN)C(=O)O [peptide 8] (H-NILALAKALIKALK-OH) | – | – | EC50 ([1]; 20° C., 5 min): 250 µM
CC[C@H](C)[C@H](NC(=O)[C@H](C)NC(=O)[C@H](CC(C)C)NC(=O)[C@H](C)N)C(=O)N[C@@H](CCCCN)C(=O)N[C@@H](CC(C)C)C(=O)N[C@H](C(=O)N[C@@H](CC(C)C)C(=O)N[C@@H](CC(N)=O)C(=O)N[C@@H](CC(C)C)C(=O)N[C@@H](CCCCN)C(=O)N[C@@H](C)C(=O)N[C@@H](CCCCN)C(=O)N[C@@H](C)C(=O)O)[C@@H](C)CC [peptide 1] (H-ALAIKLILNLKAKA-OH) | 75 | 215 | –
CC[C@H](C)[C@H](N)C(=O)N[C@@H](CC(N)=O)C(=O)N[C@@H](CC(C)C)C(=O)N[C@@H](C)C(=O)N[C@@H](C)C(=O)N[C@@H](CC(C)C)C(=O)N[C@@H](CCCCN)C(=O)N[C@@H](CCCCN)C(=O)N[C@@H](CC(C)C)C(=O)N[C@@H](C)C(=O)N[C@@H](C)C(=O)N[C@@H](CCCCN)C(=O)N[C@H](C(=O)N[C@@H](CC(C)C)C(=O)O)[C@@H](C)CC [peptide 4] (H-INLAALKKLAAKIL-OH) | – | – | EC50 ([1]; 20° C., 5 min): 500 µM
CC[C@H](C)[C@H](NC(=O)[C@H](CC(C)C)NC(=O)[C@H](C)NC(=O)[C@H](CCCCN)NC(=O)[C@H](CC(C)C)NC(=O)[C@H](CC(N)=O)NC(=O)[C@H](CC(C)C)NC(=O)[C@H](C)NC(=O)[C@@H](NC(=O)[C@H](CCCCN)NC(=O)[C@@H](N)CC(C)C)[C@@H](C)CC)C(=O)N[C@@H](C)C(=O)N[C@@H](C)C(=O)N[C@@H](CCCCN)C(=O)O [compound 2] (H-LKIALNLKALIAAK-OH) | > 90 | 130 | –
